# Where “and” joins values, the source holds several entries; their conditions need not be identical. Equal values may be shown once.
# Tested on: CD56+γδTCR+iTCR+ cells
# Test: AVM0703 R/R NHL clinical trial, whole blood flow cytometry
# Assay type: in vivo, human
# Description: FIG. 15. 101-001 size (FSC) and complexity (SSC) scattergram of AVM_NKT cells. […] Blood was stained with panel antibodies based for 15 minutes in the dark at Room Temperature. RBC lysis was performed by addition of 1 mL of 1×BD FACS Lysing Solution (BD Bioscience), diluted with MilliQ water, for 10 minutes in the dark at Room Temperature. Samples were washed with 2 mL 1×DPBS CMF (Gibco) and resuspended in 300 μL of 1×DPBS CMF before 5 μL of 7AAD (Biolegend) was added to each sample for live/dead cell determination and incubated for 5 minutes in the dark at Room Temperature. 250 μL of sample were taken up for acquisition on Macsquant 16 Flow Cytometer (Miltenyi, Serial #40150). Live white blood cells were gated for CD56+ cells co-expressing gamma delta TCR and the invariant TCR and labelled red in the forward versus side scattergram. Red-labelled cells fall within the forward versus side scattergrams where large granular cells such as neutrophils and large granular lymphocytes are known to fall.
# For characterisation of the induced/mobilized population of NKT-like cells (AVM-NKT) in humans, whole blood from human subjects was drawn in K2 EDTA Vacutainer tube (367862, BD Biosciences, NJ) and shipped to AVM Biotechnology at room temperature. 100 μl of whole blood was stained with the following antibodies: CD45 AF700 (2D1), CD16 APC (3G8), INKT PECy7 (6B11), CD8 PE (SK1), CD14 FITC (M5E2), CD56 BV650 (5.1H11), γδTCR BV510 (B1), CD19 BV421 (HIB19), NKp44 APC (P44-8) (all from Biolegend, San Diego, CA) and CD3 APCVio770 (BW264/56), (Miltenyi Biotec, San Jose, CA), 7-AAD, (Biolegend, San Diego CA) was included to distinguish the live and dead cells.
# [1] = patient 101-001, 6 mg/kg, 1 hour post-infusion
# [2] = patient 101-001, 6 mg/kg, Day 14
# [3] = patient 103-002, 6 mg/kg, 1 hour post-infusion
# [4] = patient 103-002, 6 mg/kg, Day 3
# [5] = patient 103-002, 6 mg/kg, Day 14
# [6] = patient 103-005, 9 mg/kg, 1 hour post-infusion
# [7] = patient 103-005, 9 mg/kg, Day 3
# [8] = patient 103-005, 9 mg/kg, Day 14
# [9] = patient 103-006, 9 mg/kg, day 3
# [10] = patient 103-006, 9 mg/kg, day 14
# [11] = patient 108-001, 1st 9 mg/kg infusion, 1 hour
structure (smiles),measurement,setting,value
"C[C@@H]1C[C@H]2[C@@H]3CCC4=CC(=O)C=C[C@]4(C)[C@@]3(F)[C@@H](O)C[C@]2(C)[C@@]1(O)C(=O)COP(=O)(O)O [AVM0703, dexamethasone sodium phosphate]",time to mobilization of bi-specific gamma delta TCR+ invariant TCR+ cell into the blood,"R/R NHL clinical trial patients, dosing between 6 mg/kg and 18 mg/kg",30 to 60 min
same,CD56+gdTCR+ inv TCR+ cells induced,"patient 101-001, 6 mg/kg",YES
same,CD3 (as % of CD56+ γδTCR+ iTCR+ cells),[1],39%
same,CD8med (as % of CD56+ γδTCR+ iTCR+ cells),[1],86%
same,CD19+ (as % of CD56+ γδTCR+ iTCR+ cells),[1],54%
same,CD45 (as % of CD56+ γδTCR+ iTCR+ cells),[1],99%
same,CD56+ γδTCR+ iTCR+ % of total WBCs,[1],0.24%
same,CD56+ γδTCR+ iTCR+ cells/uL,[1],11.4 cells/uL
same,TCRαβ (as % of CD56+ γδTCR+ iTCR+ cells),[1],100%
same,CD3 (as % of CD56+ γδTCR+ iTCR+ cells),[2],99%
same,CD8med (as % of CD56+ γδTCR+ iTCR+ cells),[2],94%
same,CD19+ (as % of CD56+ γδTCR+ iTCR+ cells),[2],22%
same,CD45 (as % of CD56+ γδTCR+ iTCR+ cells),[2],99.5%
same,CD56+ γδTCR+ iTCR+ % of total WBCs,[2],1.74%
same,CD56+ γδTCR+ iTCR+ cells/uL,[2],78.7 cells/uL and 79 cells/uL
same,TCRαβ (as % of CD56+ γδTCR+ iTCR+ cells),[2],99%
same,"CD56+γδTCR+ cells, % of all CD45+ cells","patient 101-001, one hour after 6 mg/kg infusion (pre-infusion 1.6%)",3.48%
same,CD56+γδTCR+ cells/uL blood,"patient 101-001, one hour after 6 mg/kg infusion (pre-infusion 76)",165 cells/uL blood
same,% of CD56+γδTCR+ cells co-expressing invTCR,"patient 103-002, 6 mg/kg",about 10%
same,CD56+gdTCR+ inv TCR+ cells induced,"patient 103-002, 6 mg/kg",YES
same,CD3 (as % of CD56+ γδTCR+ iTCR+ cells),[3],4.2%
same,CD8hi (as % of CD56+ γδTCR+ iTCR+ cells),[3],2.6%
same,CD8med (as % of CD56+ γδTCR+ iTCR+ cells),[3],2.9%
same,CD19+ (as % of CD56+ γδTCR+ iTCR+ cells),[3],0.78%
same,CD45 (as % of CD56+ γδTCR+ iTCR+ cells),[3],92%
same,CD56+ γδTCR+ iTCR+ % of total WBCs,[3],0.83%
same,CD56+ γδTCR+ iTCR+ cells/uL,[3],65.6 cells/uL
same,TCRαβ (as % of CD56+ γδTCR+ iTCR+ cells),[3],79%
same,"CD56+γδTCR+ cells, % of all CD45+ cells","patient 103-002, 6 mg/kg, 1 hour post-infusion (pre-infusion 9.3%)",6.54%
same,CD56+γδTCR+ cells/uL blood,"patient 103-002, 6 mg/kg, 1 hour post-infusion (pre-infusion 735)",517 cells/uL blood
same,CD3 (as % of CD56+ γδTCR+ iTCR+ cells),[4],67%
same,CD8hi (as % of CD56+ γδTCR+ iTCR+ cells),[4],2%
same,CD8med (as % of CD56+ γδTCR+ iTCR+ cells),[4],30%
same,CD19+ (as % of CD56+ γδTCR+ iTCR+ cells),[4],4% and 4.2%
same,CD45 (as % of CD56+ γδTCR+ iTCR+ cells),[4],17%
same,CD56+ γδTCR+ iTCR+ % of total WBCs,[4],1.99%
same,CD56+ γδTCR+ iTCR+ cells/uL,[4],366 cells/uL and 366.2 cells/uL
same,TCRαβ (as % of CD56+ γδTCR+ iTCR+ cells),[4],54%
same,CD3 (as % of CD56+ γδTCR+ iTCR+ cells),[5],31.5%
same,CD8hi (as % of CD56+ γδTCR+ iTCR+ cells),[5],2.4%
same,CD8med (as % of CD56+ γδTCR+ iTCR+ cells),[5],70%
same,CD19+ (as % of CD56+ γδTCR+ iTCR+ cells),[5],1.76%
same,CD45 (as % of CD56+ γδTCR+ iTCR+ cells),[5],98%
same,CD56+ γδTCR+ iTCR+ % of total WBCs,[5],0.42%
same,CD56+ γδTCR+ iTCR+ cells/uL,[5],27 cells/uL
same,TCRαβ (as % of CD56+ γδTCR+ iTCR+ cells),[5],78%
same,CD56+gdTCR+ inv TCR+ cells induced,"patient 103-004, 6 mg/kg",YES
same,CD56+gdTCR+ inv TCR+ cells induced,"patient 103-005, 9 mg/kg",YES
same,CD3 (as % of CD56+ γδTCR+ iTCR+ cells),[6],6%
same,CD8med (as % of CD56+ γδTCR+ iTCR+ cells),[6],17%
same,CD14+ (as % of CD56+ γδTCR+ iTCR+ cells),[6],76%
same,CD16 (as % of CD56+ γδTCR+ iTCR+ cells),[6],66%
same,CD19+ (as % of CD56+ γδTCR+ iTCR+ cells),[6],33.9%
same,CD45 (as % of CD56+ γδTCR+ iTCR+ cells),[6],99%
same,CD56+ γδTCR+ iTCR+ % of total WBCs,[6],0.87%
same,CD56+ γδTCR+ iTCR+ cells/uL,[6],21.8 cells/uL
same,CD3 (as % of CD56+ γδTCR+ iTCR+ cells),[7],10%
same,CD8med (as % of CD56+ γδTCR+ iTCR+ cells),[7],15%
same,CD14+ (as % of CD56+ γδTCR+ iTCR+ cells),[7],8%
same,CD16 (as % of CD56+ γδTCR+ iTCR+ cells),[7],84%
same,CD19+ (as % of CD56+ γδTCR+ iTCR+ cells),[7],28%
same,CD45 (as % of CD56+ γδTCR+ iTCR+ cells),[7],63%
same,CD56+ γδTCR+ iTCR+ % of total WBCs,[7],2.67%
same,CD56+ γδTCR+ iTCR+ cells/uL,[7],82.8 cells/uL
same,CD3 (as % of CD56+ γδTCR+ iTCR+ cells),[8],66%
same,CD8med (as % of CD56+ γδTCR+ iTCR+ cells),[8],16%
same,CD14+ (as % of CD56+ γδTCR+ iTCR+ cells),[8],81%
same,CD16 (as % of CD56+ γδTCR+ iTCR+ cells),[8],37%
same,CD19+ (as % of CD56+ γδTCR+ iTCR+ cells),[8],99%
same,CD45 (as % of CD56+ γδTCR+ iTCR+ cells),[8],84%
same,CD56+ γδTCR+ iTCR+ % of total WBCs,[8],0.66%
same,CD56+ γδTCR+ iTCR+ cells/uL,[8],22.4 cells/uL
same,"CD56+γδTCR+ cells, % of CD45+ cells","patient 103-005, one hour after 9 mg/kg (baseline 2.7%)",0.21%
same,% of CD56+γδTCR+ cells expressing CD16,[9],92%
same,% of CD56+γδTCR+ cells expressing NKp44,[9],19%
same,"CD56+γδTCR+ cells, % of all WBCs",[9],2.2%
same,ICAM3 MFI of CD56+γδTCR+ cells,[9],240
same,% of CD56+γδTCR+ cells expressing CD16,[10],92%
same,% of CD56+γδTCR+ cells expressing NKp44,[10],19%
same,"CD56+γδTCR+ cells, % of all WBCs",[10],2.2% and 0.11%
same,ICAM3 MFI of CD56+γδTCR+ cells,[10],240
same,"CD56+γδTCR+ cells, number or expression in the blood","patient 103-006, one hour after 9 mg/kg",had not changed
same,% of CD56+γδTCR+ cells NKp44+,"patient 103-006, one hour after 9 mg/kg (baseline 42%)",25%
same,ICAM3 MFI of CD56+γδTCR+ cells,"patient 103-006, one hour after 9 mg/kg (baseline 294)",no change
same,CD56+gdTCR+ inv TCR+ cells induced,"patient 108-001, 9 mg/kg",YES
same,CD3 (as % of CD56+ γδTCR+ iTCR+ cells),[11],4%
same,CD8hi (as % of CD56+ γδTCR+ iTCR+ cells),[11],1%
same,CD8med (as % of CD56+ γδTCR+ iTCR+ cells),[11],11%
same,CD14+ (as % of CD56+ γδTCR+ iTCR+ cells),[11],35%
same,CD16 (as % of CD56+ γδTCR+ iTCR+ cells),[11],90%
same,CD19+ (as % of CD56+ γδTCR+ iTCR+ cells),[11],11.3%

# Source: US20240358829A1, “Lymphocyte Population and Methods for Producing Same” (AVM Biotechnology, LLC, priority 2021, published 2024)
